# Results from PubChem BioAssay (NCI).
#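 The compound was tested at five concentrations on cells cultured in 96-well plates, with a 48-hour exposure period. Abbreviation: GI50, concentration required for 50% inhibition of growth. At the TGI there is no net growth.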
# Columns and labels:
# Test in all cases: NCI anticancer screen, dose series, 48 h
# UACC-257 melanoma = tested on: UACC-257 melanoma
# A498 renal = tested on: A498 renal
# CCRF-CEM leukemia = tested on: CCRF-CEM leukemia
# SF-295 CNS = tested on: SF-295 CNS
# HCC-2998 colon = tested on: HCC-2998 colon
# DU-145 prostate = tested on: DU-145 prostate
# HCT-15 colon = tested on: HCT-15 colon
# CAKI-1 renal = tested on: CAKI-1 renal
# MDA-MB-468 breast = tested on: MDA-MB-468 breast
# UO-31 renal = tested on: UO-31 renal
# HOP-62 NSCLC = tested on: HOP-62 NSCLC
# KM12 colon = tested on: KM12 colon
# OVCAR-5 ovarian = tested on: OVCAR-5 ovarian
# NCI-H226 lung = tested on: NCI-H226 lung
# SK-MEL-5 melanoma = tested on: SK-MEL-5 melanoma
# RPMI-8226 leukemia = tested on: RPMI-8226 leukemia
# SR leukemia = tested on: SR leukemia
# IGROV1 ovarian = tested on: IGROV1 ovarian
# SK-MEL-2 melanoma = tested on: SK-MEL-2 melanoma
# MOLT-4 leukemia = tested on: MOLT-4 leukemia
# SW-620 colon = tested on: SW-620 colon
# OVCAR-8 ovarian = tested on: OVCAR-8 ovarian
# UACC-62 melanoma = tested on: UACC-62 melanoma
# U251 CNS = tested on: U251 CNS
# ACHN renal = tested on: ACHN renal
# OVCAR-4 ovarian = tested on: OVCAR-4 ovarian
# A549 NSCLC = tested on: A549 NSCLC
# OVCAR-3 ovarian = tested on: OVCAR-3 ovarian
# SN12C renal = tested on: SN12C renal
# 786-0 renal = tested on: 786-0 renal
# SK-MEL-28 melanoma = tested on: SK-MEL-28 melanoma
# HS 578T breast = tested on: HS 578T breast
# MDA-MB-435 = tested on: MDA-MB-435
# SNB-75 CNS = tested on: SNB-75 CNS
# COLO 205 colon = tested on: COLO 205 colon
# NCI-H460 lung = tested on: NCI-H460 lung
# HCT-116 colon = tested on: HCT-116 colon
# RXF 393 renal = tested on: RXF 393 renal
# SF-539 CNS = tested on: SF-539 CNS
# SNB-19 CNS = tested on: SNB-19 CNS
# K-562 leukemia = tested on: K-562 leukemia
# MCF7 breast = tested on: MCF7 breast
# EKVX NSCLC = tested on: EKVX NSCLC
# NCI-H23 lung = tested on: NCI-H23 lung
# T-47D breast = tested on: T-47D breast
# TK-10 renal = tested on: TK-10 renal
# M14 melanoma = tested on: M14 melanoma
# HL-60(TB) leukemia = tested on: HL-60(TB) leukemia
# BT-549 breast = tested on: BT-549 breast
# HOP-92 NSCLC = tested on: HOP-92 NSCLC
# NCI-H522 lung = tested on: NCI-H522 lung
# PC-3 prostate = tested on: PC-3 prostate
# HT29 colon = tested on: HT29 colon
# LOX IMVI melanoma = tested on: LOX IMVI melanoma
# SF-268 CNS = tested on: SF-268 CNS
# MALME-3M melanoma = tested on: MALME-3M melanoma
# SK-OV-3 ovarian = tested on: SK-OV-3 ovarian
# MDA-MB-231 breast = tested on: MDA-MB-231 breast
smiles,measurement,setting,value
O=C(c1ccc(Cl)cc1)C1[C@H](c2ccc(Br)cc2)[C@@H](c2ccccc2)NC12C(=O)Nc1ccc(Br)cc12 (stereo partly specified),GI50,UACC-257 melanoma,3.29 µM
same,TGI,UACC-257 melanoma,9.91 µM
same,GI50,A498 renal,5.34 µM
same,TGI,A498 renal,11.6 µM
same,GI50,CCRF-CEM leukemia,1.49 µM
same,TGI,CCRF-CEM leukemia,4.98 µM
same,GI50,SF-295 CNS,2.13 µM
same,TGI,SF-295 CNS,8.48 µM
same,GI50,HCC-2998 colon,1.62 µM
same,TGI,HCC-2998 colon,4.99 µM
same,GI50,DU-145 prostate,2.81 µM
same,TGI,DU-145 prostate,9.37 µM
same,GI50,HCT-15 colon,1.6 µM
same,TGI,HCT-15 colon,6.07 µM
same,GI50,CAKI-1 renal,1.71 µM
same,TGI,CAKI-1 renal,6.79 µM
same,GI50,MDA-MB-468 breast,1.55 µM
same,TGI,MDA-MB-468 breast,7.73 µM
same,GI50,UO-31 renal,1.53 µM
same,TGI,UO-31 renal,6.36 µM
same,GI50,HOP-62 NSCLC,5.17 µM
same,TGI,HOP-62 NSCLC,11.5 µM
same,GI50,KM12 colon,1.82 µM
same,TGI,KM12 colon,7.45 µM
same,GI50,OVCAR-5 ovarian,3.55 µM
same,TGI,OVCAR-5 ovarian,9.88 µM
same,GI50,NCI-H226 lung,1.81 µM
same,TGI,NCI-H226 lung,7.96 µM
same,GI50,SK-MEL-5 melanoma,6.2 µM
same,TGI,SK-MEL-5 melanoma,12.6 µM
same,GI50,RPMI-8226 leukemia,1.45 µM
same,TGI,RPMI-8226 leukemia,4.86 µM
same,GI50,SR leukemia,1.03 µM
same,TGI,SR leukemia,2.99 µM
same,GI50,IGROV1 ovarian,2.46 µM
same,TGI,IGROV1 ovarian,8.43 µM
same,GI50,SK-MEL-2 melanoma,5.3 µM
same,TGI,SK-MEL-2 melanoma,11.5 µM
same,GI50,MOLT-4 leukemia,1.39 µM
same,TGI,MOLT-4 leukemia,5.05 µM
same,GI50,SW-620 colon,2.24 µM
same,TGI,SW-620 colon,8.37 µM
same,GI50,OVCAR-8 ovarian,1.93 µM
same,TGI,OVCAR-8 ovarian,6.97 µM
same,GI50,UACC-62 melanoma,2.94 µM
same,TGI,UACC-62 melanoma,9.44 µM
same,GI50,U251 CNS,1.53 µM
same,TGI,U251 CNS,6.07 µM
same,GI50,ACHN renal,1.52 µM
same,TGI,ACHN renal,5.07 µM
same,GI50,OVCAR-4 ovarian,2.23 µM
same,TGI,OVCAR-4 ovarian,9.06 µM
same,GI50,A549 NSCLC,1.6 µM
same,TGI,A549 NSCLC,6.03 µM
same,GI50,OVCAR-3 ovarian,2.42 µM
same,TGI,OVCAR-3 ovarian,8.6 µM
same,GI50,SN12C renal,1.04 µM
same,TGI,SN12C renal,2.43 µM
same,GI50,786-0 renal,1.34 µM
same,TGI,786-0 renal,4.15 µM
same,GI50,SK-MEL-28 melanoma,4.78 µM
same,TGI,SK-MEL-28 melanoma,10.7 µM
same,GI50,HS 578T breast,4.15 µM
same,TGI,HS 578T breast,18.2 µM
same,GI50,MDA-MB-435,2.79 µM
same,TGI,MDA-MB-435,9.4 µM
same,GI50,SNB-75 CNS,1.55 µM
same,TGI,SNB-75 CNS,8.89 µM
same,GI50,COLO 205 colon,0.946 µM
same,TGI,COLO 205 colon,2.08 µM
same,GI50,NCI-H460 lung,1.07 µM
same,TGI,NCI-H460 lung,2.54 µM
same,GI50,HCT-116 colon,1.09 µM
same,TGI,HCT-116 colon,2.35 µM
same,GI50,RXF 393 renal,1.18 µM
same,TGI,RXF 393 renal,3.25 µM
same,GI50,SF-539 CNS,4.67 µM
same,TGI,SF-539 CNS,10.8 µM
same,GI50,SNB-19 CNS,3.95 µM
same,TGI,SNB-19 CNS,10.9 µM
same,GI50,K-562 leukemia,1.65 µM
same,TGI,K-562 leukemia,6.45 µM
same,GI50,MCF7 breast,1.48 µM
same,TGI,MCF7 breast,5.24 µM
same,GI50,EKVX NSCLC,1.94 µM
same,TGI,EKVX NSCLC,8.07 µM
same,GI50,NCI-H23 lung,1.72 µM
same,TGI,NCI-H23 lung,6.78 µM
same,GI50,T-47D breast,1.74 µM
same,TGI,T-47D breast,7.41 µM
same,GI50,TK-10 renal,3.07 µM
same,TGI,TK-10 renal,10 µM
same,GI50,M14 melanoma,1.89 µM
same,TGI,M14 melanoma,7.61 µM
same,GI50,HL-60(TB) leukemia,1.45 µM
same,TGI,HL-60(TB) leukemia,6.79 µM
same,GI50,BT-549 breast,2.47 µM
same,TGI,BT-549 breast,8.33 µM
same,GI50,HOP-92 NSCLC,1.38 µM
same,TGI,HOP-92 NSCLC,4.1 µM
same,GI50,NCI-H522 lung,1.42 µM
same,TGI,NCI-H522 lung,6.69 µM
same,GI50,PC-3 prostate,1.65 µM
same,TGI,PC-3 prostate,6.18 µM
same,GI50,HT29 colon,1.19 µM
same,TGI,HT29 colon,3.09 µM
same,GI50,LOX IMVI melanoma,0.927 µM
same,TGI,LOX IMVI melanoma,1.99 µM
same,GI50,SF-268 CNS,1.88 µM
same,TGI,SF-268 CNS,9.16 µM
same,GI50,MALME-3M melanoma,4.86 µM
same,TGI,MALME-3M melanoma,10.7 µM
same,GI50,SK-OV-3 ovarian,5.49 µM
same,TGI,SK-OV-3 ovarian,13.1 µM
same,GI50,MDA-MB-231 breast,1.4 µM
same,TGI,MDA-MB-231 breast,4.37 µM
